For 19 compounds, IC50 results are on record in ChEMBL document CHEMBL4043164, “Design, synthesis and biological evaluation of novel antitumor spirotetrahydrothiopyran-oxindole derivatives as potent p53-MDM2 inhibitors” (Bioorg Med Chem, 2017).

pIC50: −log10 of the molar value.

One assay concerns A549. The assay can be described thus: Cytotoxicity against human A549 cells assessed as reduction in cell viability incubated for 24 hrs by CCK8 assay. Conditions: A549, 24 h.
A further assay deals with HCT-116. The experiment in a line: Cytotoxicity against human HCT116 cells assessed as reduction in cell viability incubated for 24 hrs by CCK8 assay. The note with it: HCT-116, 24 h.
The subject of another assay is MCF7. The experiment in a line: Cytotoxicity against human MCF7 cells assessed as reduction in cell viability incubated for 24 hrs by CCK8 assay. The note with it: MCF7, 24 h.

For the compound `COc1ccc(C2=N[C@H](c3ccc(Cl)cc3)[C@H](c3ccc(Cl)cc3)N2C(=O)N2CCNC(=O)C2)c(OC(C)C)c1`, the pIC50 with A549 is 5.00; in the assay with HCT-116, 4.55; in the assay on MCF7 it was 4.83.

Consider `COc1ccc(N2C[C@H]3[C@@H](CS[C@]4(C(=O)Nc5cccc(Br)c54)[C@@H]3c3ccc(Br)cc3)CC2=O)cc1`, for which the values for the pIC50 in the assay on A549, with HCT-116 and with MCF7 were 5.37, 5.08 and 5.52, respectively.

Regarding `O=C1C[C@@H]2CS[C@]3(C(=O)Nc4cccc(Br)c43)[C@H](c3ccc(Br)cc3)[C@H]2CN1c1ccccc1`, the figures for the pIC50 with A549, in the assay with HCT-116 and in the assay with MCF7 were 5.38, 5.07 and 5.40, respectively.

As to `COC(=O)C[C@@H]1CS[C@]2(C(=O)Nc3cccc(Br)c32)[C@H](c2ccc(Br)cc2)[C@H]1CNc1ccccc1F`, the pIC50 in the assay with A549 is 5.38; in the assay with HCT-116 it was 4.98; in the assay on MCF7, 5.44.

For `O=C1Nc2cccc(Br)c2[C@@]12SC[C@@H](CCO)[C@H](CO)[C@H]2c1ccc(Br)cc1`, the pIC50 is 4.78 in the assay on A549, 4.72 with HCT-116 and 4.87 with MCF7.

Take `COC(=O)C[C@@H]1CS[C@]2(C(=O)Nc3cccc(Br)c32)[C@H](c2ccc(Br)cc2)[C@H]1CNc1cccc(F)c1`: the results for the pIC50 in the assay with A549, with HCT-116 and in the assay with MCF7 were 5.46, 5.07 and 5.55, respectively.

For `CCOc1ccc(N2C[C@H]3[C@@H](CS[C@]4(C(=O)Nc5cccc(Br)c54)[C@@H]3c3ccc(Br)cc3)CC2=O)cc1`, the pIC50 in the assay on A549 was 5.59; in the assay with HCT-116 it was 4.98; in the assay on MCF7 it was 5.49.

Turning to `O=C1C[C@@H]2CS[C@]3(C(=O)Nc4cccc(Br)c43)[C@H](c3ccc(Br)cc3)[C@H]2CN1c1cccc(F)c1`, the pIC50 was 5.46 with A549, 5.02 with HCT-116 and 5.42 in the assay on MCF7.

On to `CN1CCN(c2ccc(N3C[C@H]4[C@@H](CS[C@]5(C(=O)Nc6cccc(Br)c65)[C@@H]4c4ccc(Br)cc4)CC3=O)cc2)CC1`, for which the pIC50 in the assay on A549 is 5.20; with HCT-116, 5.06; with MCF7, 5.23.

Regarding `O=C1C[C@@H]2CS[C@]3(C(=O)Nc4cccc(Br)c43)[C@H](c3ccc(Br)cc3)[C@H]2CN1c1ccc(N2CCOCC2)cc1`, the values for the pIC50 in the assay on A549, with HCT-116 and with MCF7 were 5.59, 5.37 and 5.62, respectively.

Turning to `Cc1ccc(N2C[C@H]3[C@@H](CS[C@]4(C(=O)Nc5cccc(Br)c54)[C@@H]3c3ccc(Br)cc3)CC2=O)cc1`, the pIC50 in the assay on A549 is 5.34; in the assay with HCT-116, 5.29; with MCF7, 5.52.

As for `O=C1C[C@@H]2CS[C@]3(C(=O)Nc4cccc(Br)c43)[C@H](c3ccc(Br)cc3)[C@H]2CN1c1ccc(Cl)cc1`, the results for the pIC50 in the assay on A549, with HCT-116 and with MCF7 were 5.32, 5.10 and 5.38, respectively.

Regarding `O=C1C[C@@H]2CS[C@]3(C(=O)Nc4cccc(Br)c43)[C@H](c3ccc(Br)cc3)[C@H]2CN1c1ccc(F)cc1F`, the figures for the pIC50 with A549, in the assay on HCT-116 and in the assay with MCF7 were 5.60, 5.01 and 5.36, respectively.

Consider `COC(=O)C[C@@H]1CS[C@]2(C(=O)Nc3cccc(Br)c32)[C@H](c2ccc(Br)cc2)[C@H]1C=O`, for which the pIC50 was 4.95 in the assay on A549, 4.76 in the assay on HCT-116 and 5.07 with MCF7.

Consider `O=C1C[C@@H]2CS[C@]3(C(=O)Nc4cccc(Br)c43)[C@H](c3ccc(Br)cc3)[C@H]2CN1c1ccc(F)cc1`, for which the pIC50 is 5.36 in the assay on A549, 4.98 in the assay on HCT-116 and 5.40 in the assay with MCF7.

As to `O=C1C[C@@H]2CS[C@]3(C(=O)Nc4cccc(Br)c43)[C@H](c3ccc(Br)cc3)[C@H]2CN1c1ccccc1F`, the results for the pIC50 with A549, in the assay with HCT-116 and with MCF7 were 5.64, 5.03 and 5.34, respectively.

For the compound `O=C1C[C@@H]2CS[C@]3(C(=O)Nc4cccc(Br)c43)[C@H](c3ccc(Br)cc3)[C@H]2CN1c1ccc(-c2ccccc2)cc1`, the values for the pIC50 with A549, with HCT-116 and with MCF7 were 5.39, 5.25 and 5.16, respectively.

As to `CCN(CC)c1ccc(N2C[C@H]3[C@@H](CS[C@]4(C(=O)Nc5cccc(Br)c54)[C@@H]3c3ccc(Br)cc3)CC2=O)cc1`, the pIC50 with A549 is 5.54; with HCT-116 it was 5.62; in the assay on MCF7, 5.74.

As to `CCOc1cccc(N2C[C@H]3[C@@H](CS[C@]4(C(=O)Nc5cccc(Br)c54)[C@@H]3c3ccc(Br)cc3)CC2=O)c1`, the pIC50 in the assay on A549 is 5.35; with HCT-116, 5.07; with MCF7 it was 5.44.
